According to US8993762B2, “Total synthesis of thaxtomin A analogues and their intermediates” (Marrone Bio Innovations, Inc, priority 2013, dated 2015):

Experiments:
mustard plants = test: Comparison of herbicidal activity, track-sprayer application to mustard plants; type: in vivo; conditions: fifteen day mustard plants; sprayed at 0.25 and 1.0 mg/mL; counted on the 7th and 14th days; four replicates
Protocol: Synthesized thaxtomin A and thaxtomin A from fermentation were separately dissolved in ethanol first (final ethanol concentration in the spraying solution was 2%), then added into 0.2% Glycosperse O-20 water solution. Sonication completely dissolved the thaxtomin A. The concentration of thaxtomin A was 0.25 and 1.0 mg/mL. Water with 2% ethanol and 0.2% Glycosperse O-20 was used as a blank control. Fifteen day mustard plants were used in the experiments. Four replicates for each concentration of thaxtomin A were carried out. Spraying was performed using a Track Sprayer. The herbicidal activity was graded as percent control. Herbicidal activity was counted on the 7th and 14th days, respectively.

plant cells = conditions: Lawrence et al., 1990; cited from earlier work

**Q.** With `CN1C(=O)[C@](O)(Cc2cccc(O)c2)N(C)C(=O)[C@@H]1Cc1c[nH]c2cccc([N+](=O)[O-])c12` [thaxtomin A from fermentation, thaxtomin A] as the compound, how does the “herbicidal activity graded as percent control, synthesized vs natural thaxtomin A” value (mustard plants) read?
**A.** Its value is “no significant difference”.

**Q.** For `CN1C(=O)[C@](O)(Cc2cccc(O)c2)N(C)C(=O)[C@@H]1Cc1c[nH]c2cccc([N+](=O)[O-])c12` [Synthesized thaxtomin A, Thaxtomin A], which “herbicidal activity graded as percent control, synthesized vs natural thaxtomin A” value (mustard plants) is on record?
**A.** The value was “no significant difference”.

**Q.** What about the “effect on plant cells” value (plant cells) of the same compound?
**A.** The value was “hypertrophy of plant cells at nanomolar amounts”.
